{
  "source": "paper PMC8589421",
  "about": "“Impact of Type II LRRK2 inhibitors on signaling and mitophagy” (Biochemical Journal, 2021)",
  "key": {"[1]": {"system": "LRRK2 Ser935, Ser910, Ser955 and Ser973", "assay": "LRRK2 biomarker site phosphorylation in primary human neutrophils", "format": "cell-based", "conditions": "up to 3 μM", "procedure": "Cell extracts were mixed with a quarter of a volume of NuPage LDS Sample buffer 4× Invitrogen and heated at 95°C for 5 min. […] At the end of electrophoresis, proteins were electrophoretically transferred onto the nitrocellulose membrane (GE Healthcare, Amersham Protran Supported 0.45 µm NC) at 100 V for 90 min on ice in the transfer buffer (48 mM Tris–HCl and 39 mM glycine supplemented with 20% methanol). Transferred membrane was blocked with 5% (w/v) skim milk powder dissolved in TBS-T [20 mM Tris–HCl, pH 7.5, 150 mM NaCl and 0.1% (v/v) Tween 20] at room temperature for 1 h. The membrane was typically cropped into three pieces, namely the ‘top piece’ (from the top of the membrane to 75 kDa), the ‘middle piece’ (between 75 and 30 kDa) and the ‘bottom piece’ (from 30 kDa to the bottom of the membrane). All primary antibodies were used at 1 μg/ml final concentration and incubated in TBS-T containing 5% (by mass) bovine serum albumin with exception of α-tubulin and GAPDH antibodies that were diluted 1 : 5000 and 1 : 2000, respectively. The top piece was incubated with the indicated rabbit anti-LRRK2 phosphorylation site antibody multiplexed with mouse anti-LRRK2 C-terminus total antibody. […] Protein bands were acquired via near infrared fluorescent detection using the Odyssey CLx imaging system and quantified using the Image Studio software. […]"}, "[2]": {"system": "basal mitophagy, wild type MEFs", "assay": "mito-QC basal mitophagy in wild-type primary MEFs", "format": "cell-based, mouse", "conditions": "24 h, 30–300 nM GZD-824, GSK3357679A 100 nM positive control", "procedure": "To assess mitophagy, wild type, G2019S knock in, and LRRK2 knock out primary mouse embryonic fibroblasts (MEFs) were derived, from time-mated pregnant females at E12.5 as previously described. Briefly, cells were plated on glass coverslips and incubated with DMEM (Gibco, 11960-044) supplemented with 10% FBS, 2 mM L-Glutamine (Gibco, 2503-081), 1% non-essential amino acids (Gibco, 11140-035), 1% Antibiotics (Penicillin/Streptomycin 100 U/ml penicillin and 100 µg/ml streptomycin; Gibco), and 150 µM β-Mercaptoethanol (Gibco, 21985-023) at 37°C under a humidified 5% CO2 atmosphere. […] GSK3357679A 100 nM (Ding et al., in prep) was used as a positive control. At the end of the treatment, MEFs were briefly washed twice in DPBS (Gibco, 14190-094), and fixed in 3.7% Paraformaldehyde pH 7.00 (Sigma, P6148), 200 mM HEPES, for 20 min. Cells were then washed two times with DMEM, 10 mM HEPES, and then incubated for 10 min with DMEM, 10 mM HEPES. […] Images were acquired using a Nikon Eclipse Ti-S fluorescence microscope with a 63× objective. Images were analyzed using the mito-QC counter as previously described. Experiments were performed in 3–4 independent experiments and data was analyzed with a one-way ANOVA followed by a Dunnett's multiple comparison test using the GraphPad Prism software (version 8.4.3 (686))."}},
  "data": [
    {"compound": "Cc1ccc(C(=O)Nc2ccc(CN3CCN(C)CC3)c(C(F)(F)F)c2)cc1C#Cc1cnc2[nH]ncc2c1", "note": "[GZD-824]", "values": [
      {"measurement": "phosphorylation of Ser935, Ser910, Ser955 and Ser973", "setting": "[1]", "result": "unaffected"},
      {"measurement": "stimulation of basal mitophagy", "setting": "[2]", "result": "~2", "unit": "fold"}
    ]}
  ]
}
